Bridge positions count the residues as written; N and C are the ends. Square brackets hold non-standard residues; d marks the D form. Peptide text beside a SMILES is read from it. 1Nal = N[C@@H](Cc1cccc2ccccc12)C(=O)O
Experiments:
human Kv1.3 (CHO) = molecular target: T1, human Kv1.3 (CHO) (Homo sapiens, UniProt P22001); assay: cell-based; format: cell-based
T1 construct: expressed in transfected cells

human Kv1.1 (HEK293) = molecular target: T2, human Kv1.1 (HEK293) (Homo sapiens, UniProt Q09470); assay: cell-based
T2 construct: expressed in transfected cells; host or cells: HEK293
T2 sequence (Q09470 whole entry): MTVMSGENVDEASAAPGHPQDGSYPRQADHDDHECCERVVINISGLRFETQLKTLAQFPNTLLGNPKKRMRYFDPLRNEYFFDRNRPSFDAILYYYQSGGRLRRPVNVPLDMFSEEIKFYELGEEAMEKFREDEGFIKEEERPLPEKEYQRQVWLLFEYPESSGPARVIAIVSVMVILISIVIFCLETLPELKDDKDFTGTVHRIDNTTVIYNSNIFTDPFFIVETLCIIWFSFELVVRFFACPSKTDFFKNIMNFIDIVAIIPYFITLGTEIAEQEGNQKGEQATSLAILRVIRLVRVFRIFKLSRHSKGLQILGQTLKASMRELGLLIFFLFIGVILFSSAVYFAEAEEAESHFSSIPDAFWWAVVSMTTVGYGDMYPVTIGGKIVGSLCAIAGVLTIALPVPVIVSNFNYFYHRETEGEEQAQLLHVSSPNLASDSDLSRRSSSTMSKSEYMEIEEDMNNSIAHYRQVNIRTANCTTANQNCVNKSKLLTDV

[1] = test system: thapsigargin-induced IFN-g production in human whole blood; format: cell-based; details: for IC50: read-out: Analogue Activity (IC50) WB/IFNg
[2] = test system: thapsigargin-induced IL-2 production in human whole blood; details: for IC50: read-out: Analogue Activity (IC50) WB/IL-2
human Kv1.1 = molecular target: T3, human Kv1.1 (Homo sapiens, UniProt Q09470); format: cell-based
T3 construct: expressed in transfected cells; host or cells: HEK293
T3 sequence (Q09470 whole entry): as above

human Kv1.3 = human Kv1.3 (Homo sapiens, UniProt P22001); assay: cell-based
Sequence of human Kv1.3 (P22001 whole entry): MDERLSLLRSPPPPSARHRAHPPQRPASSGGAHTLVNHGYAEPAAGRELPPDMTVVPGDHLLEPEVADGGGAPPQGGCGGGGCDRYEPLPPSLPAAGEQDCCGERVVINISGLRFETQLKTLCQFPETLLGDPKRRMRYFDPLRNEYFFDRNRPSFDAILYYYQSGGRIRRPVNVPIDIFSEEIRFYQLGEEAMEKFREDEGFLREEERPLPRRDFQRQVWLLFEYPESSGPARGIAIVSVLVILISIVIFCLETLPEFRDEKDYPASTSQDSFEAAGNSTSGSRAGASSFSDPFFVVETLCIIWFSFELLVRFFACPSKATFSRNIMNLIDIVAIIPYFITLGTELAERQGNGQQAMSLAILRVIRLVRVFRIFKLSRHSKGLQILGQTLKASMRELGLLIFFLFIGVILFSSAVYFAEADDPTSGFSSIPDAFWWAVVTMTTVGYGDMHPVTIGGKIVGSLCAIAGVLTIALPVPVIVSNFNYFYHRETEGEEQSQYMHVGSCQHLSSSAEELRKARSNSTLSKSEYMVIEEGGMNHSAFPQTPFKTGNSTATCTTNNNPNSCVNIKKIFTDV

[3] = test system: CD40L on CD4+ T cells in human whole blood; format: cell-based
[4] = test system: IL-2R on CD4+ T cells in human whole blood; format: cell-based

T1 sequence (P22001 whole entry): as above

Compound	IC50 (human Kv1.3 (CHO)) [nM]	IC50 (human Kv1.1 (HEK293)) [nM]	IC50 [1] [nM]	IC50 [2] [nM]	further results
CC[C@H](C)[C@@H]1NC(=O)[C@H](CCCCN)NC(=O)[C@@H](NC(=O)[C@H](CCCCN)NC(=O)[C@@H](NC(=O)[C@H](CC(N)=O)NC(=O)[C@@H](NC(=O)[C@@H](NC(=O)[C@@H](NC(=O)CN)C(C)C)[C@@H](C)CC)[C@@H](C)CC)C(C)C)CSSC[C@@H]2NC(=O)[C@H](CCCCN)NC(=O)CNC(=O)[C@H](Cc3ccccc3)NC(=O)[C@H](CCCNC(=N)N)NC(=O)[C@H](CCSC)NC(=O)CNC(=O)[C@H](Cc3cccc4ccccc34)NC(=O)[C@H](CCCCN)NC(=O)[C@H](CCCCN)NC(=O)[C@@H]3CSSC[C@@H](C(=O)N[C@H](C(=O)N4CCC[C@H]4C(=O)N[C@@H](CCCCN)C(=O)O)[C@@H](C)O)NC(=O)[C@H](Cc4c[nH]cn4)NC(=O)[C@H](CSSC[C@H](NC(=O)[C@H](CCC(N)=O)NC(=O)[C@H](CCCNC(=N)N)NC(=O)[C@H](CO)NC1=O)C(=O)N[C@@H](CC(C)C)C(=O)N[C@@H](CCC(=O)O)C(=O)N1CCC[C@H]1C(=O)N3)NC(=O)[C@H](CCCCN)NC(=O)CNC(=O)[C@H](CC(N)=O)NC(=O)[C@H](CCSC)NC2=O [A21Nal] (H-GVIINVKCKISRQCLEPCKK[1Nal]GMRFGKCMNGKCHCTPK-OH; disulfide 8-28, 14-33, 18-35)	0.0261	< 0.00152	0.434	0.315	–
CC[C@H](C)[C@@H]1NC(=O)[C@H](CCCCN)NC(=O)[C@@H](NC(=O)[C@H](CCCCN)NC(=O)[C@@H](NC(=O)[C@H](CC(N)=O)NC(=O)[C@@H](NC(=O)[C@@H](NC(=O)[C@@H](NC(=O)[C@@H](N)Cc2cccc3ccccc23)C(C)C)[C@@H](C)CC)[C@@H](C)CC)C(C)C)CSSC[C@@H]2NC(=O)[C@H](CCCCN)NC(=O)CNC(=O)[C@H](Cc3ccccc3)NC(=O)[C@H](CCCNC(=N)N)NC(=O)[C@H](CCSC)NC(=O)CNC(=O)[C@H](C)NC(=O)[C@H](CCCCN)NC(=O)[C@H](CCCCN)NC(=O)[C@@H]3CSSC[C@@H](C(=O)N[C@H](C(=O)N4CCC[C@H]4C(=O)N[C@@H](CCCCN)C(=O)O)[C@@H](C)O)NC(=O)[C@H](Cc4c[nH]cn4)NC(=O)[C@H](CSSC[C@H](NC(=O)[C@H](CCC(N)=O)NC(=O)[C@H](CCCNC(=N)N)NC(=O)[C@H](CO)NC1=O)C(=O)N[C@@H](CC(C)C)C(=O)N[C@@H](CCC(=O)O)C(=O)N1CCC[C@H]1C(=O)N3)NC(=O)[C@H](CCCCN)NC(=O)CNC(=O)[C@H](CC(N)=O)NC(=O)[C@H](CCSC)NC2=O [G1Nal] (H-[1Nal]VIINVKCKISRQCLEPCKKAGMRFGKCMNGKCHCTPK-OH; disulfide 8-28, 14-33, 18-35)	0.0207	0.0339	2.56	2.79	–
CC[C@H](C)[C@H](NC(=O)[C@@H](NC(=O)CN)C(C)C)C(=O)N[C@H](C(=O)N[C@@H](CC(N)=O)C(=O)N[C@H](C(=O)N[C@@H](CCCCN)C(=O)N[C@H]1CSSC[C@@H]2NC(=O)[C@H](CCCCN)NC(=O)CNC(=O)[C@H](Cc3ccccc3)NC(=O)[C@H](CCCNC(=N)N)NC(=O)[C@H](CCSC)NC(=O)CNC(=O)[C@H](C)NC(=O)[C@H](CCCCN)NC(=O)[C@H](CCCCN)NC(=O)[C@@H]3CSSC[C@@H](C(=O)N[C@H](C(=O)N4CCC[C@H]4C(=O)N[C@@H](CCCCN)C(=O)O)[C@@H](C)O)NC(=O)[C@H](Cc4c[nH]cn4)NC(=O)[C@H](CSSC[C@H](NC(=O)[C@H](CCC(N)=O)NC(=O)[C@H](CCCNC(=N)N)NC(=O)[C@H](CO)NC(=O)[C@H](Cc4cccc5ccccc45)NC(=O)[C@H](CCCCN)NC1=O)C(=O)N[C@@H](CC(C)C)C(=O)N[C@@H](CCC(=O)O)C(=O)N1CCC[C@H]1C(=O)N3)NC(=O)[C@H](CCCCN)NC(=O)CNC(=O)[C@H](CC(N)=O)NC(=O)[C@H](CCSC)NC2=O)C(C)C)[C@@H](C)CC [I10Nal] (H-GVIINVKCK[1Nal]SRQCLEPCKKAGMRFGKCMNGKCHCTPK-OH; disulfide 8-28, 14-33, 18-35)	0.0454	< 0.00152	0.257	0.184	–
CC[C@H](C)[C@@H]1NC(=O)[C@H](CCCCN)NC(=O)[C@@H](NC(=O)[C@H](CCCCN)NC(=O)[C@@H](NC(=O)[C@H](CC(N)=O)NC(=O)[C@@H](NC(=O)[C@@H](NC(=O)[C@@H](NC(=O)CN)C(C)C)[C@@H](C)CC)[C@@H](C)CC)C(C)C)CSSC[C@@H]2NC(=O)[C@H](CCCCN)NC(=O)CNC(=O)[C@H](Cc3ccccc3)NC(=O)[C@H](CCCNC(=N)N)NC(=O)[C@H](CCSC)NC(=O)CNC(=O)[C@H](C)NC(=O)[C@H](CCCCN)NC(=O)[C@H](CCCCN)NC(=O)[C@@H]3CSSC[C@@H](C(=O)N[C@H](C(=O)N4CCC[C@H]4C(=O)N[C@@H](CCCCN)C(=O)O)[C@@H](C)O)NC(=O)[C@H](Cc4c[nH]cn4)NC(=O)[C@H](CSSC[C@H](NC(=O)[C@H](CCC(N)=O)NC(=O)[C@H](CCCNC(=N)N)NC(=O)[C@H](CO)NC1=O)C(=O)N[C@@H](CC(C)C)C(=O)N[C@@H](CCC(=O)O)C(=O)N1CCC[C@H]1C(=O)N3)NC(=O)[C@H](Cc1cccc3ccccc13)NC(=O)CNC(=O)[C@H](CC(N)=O)NC(=O)[C@H](CCSC)NC2=O [K32Nal] (H-GVIINVKCKISRQCLEPCKKAGMRFGKCMNG[1Nal]CHCTPK-OH; disulfide 8-28, 14-33, 18-35)	0.0261	0.00191	0.196	0.134	–
CC[C@H](C)[C@@H]1NC(=O)[C@H](CCCCN)NC(=O)[C@@H](NC(=O)[C@H](CCCCN)NC(=O)[C@@H](NC(=O)[C@H](CC(N)=O)NC(=O)[C@@H](NC(=O)[C@@H](NC(=O)[C@@H](NC(=O)CN)C(C)C)[C@@H](C)CC)[C@@H](C)CC)C(C)C)CSSC[C@@H]2NC(=O)[C@H](CCCCN)NC(=O)CNC(=O)[C@H](Cc3ccccc3)NC(=O)[C@H](CCCNC(=N)N)NC(=O)[C@H](CCSC)NC(=O)CNC(=O)[C@H](C)NC(=O)[C@H](CCCCN)NC(=O)[C@H](CCCCN)NC(=O)[C@@H]3CSSC[C@@H](C(=O)N[C@H](C(=O)N4CCC[C@H]4C(=O)N[C@@H](CCCCN)C(=O)O)[C@@H](C)O)NC(=O)[C@H](Cc4c[nH]cn4)NC(=O)[C@H](CSSC[C@H](NC(=O)[C@H](CCC(N)=O)NC(=O)[C@H](Cc4cccc5ccccc45)NC(=O)[C@H](CO)NC1=O)C(=O)N[C@@H](CC(C)C)C(=O)N[C@@H](CCC(=O)O)C(=O)N1CCC[C@H]1C(=O)N3)NC(=O)[C@H](CCCCN)NC(=O)CNC(=O)[C@H](CC(N)=O)NC(=O)[C@H](CCSC)NC2=O [R12Nal] (H-GVIINVKCKIS[1Nal]QCLEPCKKAGMRFGKCMNGKCHCTPK-OH; disulfide 8-28, 14-33, 18-35)	0.0377	0.025	0.387	0.46	–
Fc-L10-OSK1[E16K,K20D]: Fc-L10-OSK1 with glutamic acid to lysine at 16 and lysine to aspartic acid at 20	–	–	–	–	blocking activity against Kv1.1 (human Kv1.1): removed the blocking activity against Kv1.1
Fc-L10-OSK1[K7S,E16K,K20D]: Fc-L10-OSK1 with triple substitution K7S, E16K, K20D	–	–	–	–	IC50 (human Kv1.1; read-out: hKv1.1: IC50): 10 nM
Fc-L10-OSK1[K7S]: Fc-L10-OSK1 with lysine to serine at position 7	–	–	–	–	change in Kv1.3 potency compared to Fc-L10-OSK1 (human Kv1.3): 2 fold; fold less potent than the synthetic OSK1 toxin peptide (Kv1.3 IC50) (human Kv1.3): approximately 10 fold; hKv1.1/hKv1.3 selectivity ratio (human Kv1.3): 269; IC50 (human Kv1.3; read-out: IC50 for block of the outward potassium current): 0.372 ± 0.071 nM; change in selectivity compared to Fc-L10-OSK1 (human Kv1.1): 1.3 fold
IbTx: BKCa channel inhibitor iberiotoxin, purchased from Bachem (QFTDVDCSVSKECWSVCKDLFGVDRGKCMGKKCRCYQ; Definition of Artificial Sequence: Synthetic peptide) [reference compound]	–	–	–	–	thapsigargin-induced IFN-g production in human whole blood [1]: no significant activity; thapsigargin-induced upregulation of CD40L on T cells [3]: no significant activity; thapsigargin-induced upregulation of the IL-2R on T cells [4]: no significant activity; thapsigargin-induced IL-2 production in human whole blood [2]: no significant activity

— patent US7820623B2 (priority 2006, dated 2010)
